We go through 90 compounds from PubChem BioAssay AID540252 (Sanford-Burnham Center for Chemical Genomics, 2011).

Activity calls are given as the source filed them. How the calls were made is not given here.

In general, IC50 refers to the concentration needed to halve the response being measured.

The test deals with glucose-6-phosphate dehydrogenase-6-phosphogluconolactonase (Plasmodium falciparum 3D7). The test is described as follows: PfG6PD enzyme inhibitors, direct NADPH readout, dose response, orthogonal assay, biochemical, end-point NADPH detection (AID 540252). The note with it: purified PfG6PD enzyme.
For `CC(=O)c1cccc(NC(=O)c2cnn(-c3ccccc3)c2C)c1`, the IC50 was > 80 µM (inactive).

Regarding `CCn1c(SCc2nc3scc(-c4ccccc4)c3c(=O)[nH]2)nnc1-c1cccs1`, the IC50 was > 80 µM (inactive).

For the compound `Cc1cc(C)nc(SSc2nc(C)cc(C)n2)n1`, the concentration for half-maximal inhibition (IC50) was 57.6 µM.

On to `CC1CCc2c(nc3sc4c(c3c2N)CCCC4)C1` (stereo not given), for which the IC50 is > 80 µM (inactive).

Consider `CN(C)c1ccc(/C=C/c2ccc3c4ccccc4ccc3[n+]2-c2ccccc2)cc1`, for which the IC50 is > 80 µM (inactive).

Regarding `Cc1cc(O)c(C(C)C)cc1N=Cc1ccc([N+](=O)[O-])cc1`, the IC50 is > 80 µM (inactive).

In the case of `Cc1nnc(SCC(=O)c2cc(C)n(-c3ccc4c(c3)OCO4)c2C)s1`, the IC50 is > 80 µM (inactive).

As for `O=C(CNC(=O)c1ccc(Br)cc1)NCC(=O)OCC(=O)c1ccc([N+](=O)[O-])cc1`, the IC50 is > 80 µM (inactive).

With `CCc1ccc(OCC(=O)N/N=C/c2cc([N+](=O)[O-])ccc2N2CCOCC2)cc1`, the IC50 was > 80 µM (inactive).

In the case of `Cc1ccc2nc(SCC(=O)NC3CCCc4ccccc43)[nH]c2c1` (stereo not given), the IC50 was > 80 µM (inactive).

As to `CCOc1ccccc1C=NNC(=O)CCCCC(=O)NN=Cc1ccccc1OCC`, the IC50 was > 80 µM (inactive).

As to `O=c1c2ccccc2sn1-c1ccccc1`, the half-inhibitory concentration (IC50) is 7.9 µM.

On to `COc1ccc(/C=C/c2nc3ccccc3n2Cc2ccc(OC)c(OC)c2)cc1`, for which the IC50 was > 80 µM (inactive).

For `CN(C)c1ncc(C2=C(Cl)C(=O)C(N3CCCC3)=C(Cl)C2=O)s1`, the IC50 is > 80 µM (inactive).

Consider `Cc1ccccc1OCC(=O)N/N=C/c1ccc(Sc2nc3ccccc3s2)o1`, for which the IC50 is > 80 µM (inactive).

Consider `CCN1CCN(C(=S)c2ccc(Cl)c(Cl)c2)CC1`, for which the IC50 was > 80 µM (inactive).

Regarding `Cc1cc(SCC(=O)N/N=C/c2ccco2)nc2ccccc12`, the IC50 was > 80 µM (inactive).

`Cn1c2ccccc2c2ccc3c(c21)C(=O)C=CC3=O`: the IC50 is > 80 µM (inactive).

With `Nc1c(C(=O)Nc2ccc(F)cc2)sc(=S)n1-c1ccccc1F`, the IC50 was > 80 µM (inactive).

In the case of `CCn1c([N+](=O)[O-])nc2c1c(=O)[nH]c(=O)n2C`, the IC50 was > 80 µM (inactive).

For the compound `Clc1ccc2nc(-c3ccc(Br)s3)cn2c1`, the IC50 is > 80 µM (inactive).

As to `O=C(O)CSc1cc(NS(=O)(=O)c2ccc(Cl)cc2)c2ccccc2c1O`, the IC50 was > 80 µM (inactive).

For `Nn1c(SCC(=O)Nc2cccnc2Cl)nnc1-c1ccccc1`, the IC50 was > 80 µM (inactive).

For `COc1cc(N2C(=O)C=CC2=O)ccc1N1C(=O)C=CC1=O`, the concentration for half-maximal inhibition (IC50) was 16.5 µM.

With `Cc1ccccc1OCC(=O)NCC(=O)OCC(=O)c1ccc([N+](=O)[O-])cc1`, the half-maximal inhibitory concentration (IC50) is 50.1 µM.

Consider `C#CCCc1cscc1/C=[N+](\[O-])c1ccc(C(=O)OCC)cc1`, for which the IC50 is > 80 µM (inactive).

Take `O=C(CSc1nc2cc(Cl)ccc2s1)c1ccco1`: the IC50 was > 80 µM (inactive).

As to `CCN(CC)CCn1c2ccccc2c(=O)c2c(O)ccc(O)c21`, the IC50 was > 80 µM (inactive).

As for `COc1ccc(S(=O)(=O)/N=C2\C=C(Nc3ccc(O)cc3)C(=O)c3ccccc32)cc1`, the IC50 was > 80 µM (inactive).

On to `CCOc1ccccc1NC(=O)CCCc1nc2ccccc2c(=O)[nH]1`, for which the IC50 was > 80 µM (inactive).

For the compound `COc1cc(O)c(C(=O)O)c(-c2cc(O)c(O)cc2C)c1`, the IC50 was > 80 µM (inactive).

Consider `COc1ccc(N=C2C(=S)N(c3ccc(OC)cc3)C(=NS(=O)(=O)c3ccccc3)N2c2ccccc2)cc1`, for which the IC50 was > 80 µM (inactive).

As to `O=C(CN1CCN(c2ccc(O)cc2)CC1)Nc1cc(S(=O)(=O)N2CCOCC2)ccc1Cl`, the IC50 was > 80 µM (inactive).

For `COc1ccc(OCc2nnc3n2N=C(c2ccccc2)C(CC(=O)O)S3)cc1` (stereo not given), the IC50 is > 80 µM (inactive).

Take `COc1ccccc1NS(=O)(=O)c1cc(NC(=O)c2ccc(Cl)nc2)ccc1N1CCCC1`: the IC50 was > 80 µM (inactive).

As to `CCC(C)(C)c1nnc(NC(=O)C2CCN(C(=O)c3ccco3)CC2)s1`, the IC50 was > 80 µM (inactive).

For the compound `CC(NC1=CC(=O)c2cccnc2C1=O)C(O)c1ccccc1` (stereo not given), the IC50 is > 80 µM (inactive).

Regarding `Cc1ccc(N2CC(C(=O)OCC(=O)c3ccc([N+](=O)[O-])cc3)CC2=O)cc1` (stereo not given), the IC50 is 50.9 µM.

For `CCCNC(=O)Cn1sc2nc(C)cc(C)c2c1=O`, the IC50 is > 80 µM (inactive).

As for `O=c1c2ccccc2sn1-c1nccs1`, the IC50 was 26.2 µM.

For `N#CC(C#N)=C1C=CC=CN1/C(=C\c1ccccc1Cl)C(=O)c1ccccc1`, the IC50 was > 80 µM (inactive).

For the compound `CC(=NNC(=S)N1CCN(c2ccccn2)CC1)c1nccs1`, the IC50 is > 80 µM (inactive).

For the compound `CNS(=O)(=O)c1ccc(-c2ccc(C=C3C(=O)NC(=O)NC3=O)o2)cc1`, the IC50 is > 80 µM (inactive).

`Cc1cc(O)c(C(C)C)cc1N=Cc1ccc(N(C)C)cc1`: the IC50 is > 80 µM (inactive).

As for `CC1=CC(=NOC(=O)/C=C/c2ccccc2)C=C(C)C1=O`, the IC50 is > 80 µM (inactive).

Turning to `COc1cc(/C=C2\CC/C(=C\c3cc(OC)c(O)c(OC)c3)C2=O)cc(OC)c1O`, the IC50 is > 80 µM (inactive).

Turning to `O=[N+]([O-])c1ccc(Sc2cccc3cccnc23)c2cccnc12`, the IC50 is > 80 µM (inactive).

For the compound `COc1cc(SSc2cc(OC)cc([N+](=O)[O-])c2N)c(N)c([N+](=O)[O-])c1`, the concentration for half-maximal inhibition (IC50) is 13.1 µM.

As to `Nc1[nH]c(=O)[nH]c(=O)c1N=Cc1ccccc1`, the IC50 is > 80 µM (inactive).

`COc1ccc2ccccc2c1C1CC(=O)N2CN(C3CCCCC3)CSC2=C1C#N` (stereo not given): the IC50 was > 80 µM (inactive).

As to `O=C(O)c1ccc(-n2c(-c3cc(-c4ccco4)[nH]n3)n[nH]c2=S)cc1`, the IC50 is > 80 µM (inactive).

`O=c1c2ccccc2sn1-c1ccc(Cl)cc1`: the IC50 is 17.2 µM.

On to `Cc1ccc(NNS(=O)(=O)c2ccc(C)cc2)cc1`, for which the IC50 is > 80 µM (inactive).

Turning to `Cc1ccc(-c2c(C(=O)N/N=C/c3ccc(C)o3)nnn2-c2nonc2N)cc1`, the IC50 was > 80 µM (inactive).

Regarding `CC(C)Nc1ccc(Nc2ccccc2)cc1`, the IC50 is > 80 µM (inactive).

With `Cc1ccc(S(=O)(=O)SC/C=C/CSS(=O)(=O)c2ccc(C)cc2)cc1`, the IC50 is 64.4 µM.

With `COc1cc(NCCCn2ccc(NC(=O)OCc3ccccc3)nc2=O)cc(OC)c1OC`, the IC50 was > 80 µM (inactive).

Turning to `O=C(O)C(Cc1ccccc1)N1C(=O)C=CC1=O` (stereo not given), the 50% inhibitory concentration (IC50) is 51 µM.

As to `CCC(=O)OCCNc1cc(Sc2nc3ccccc3s2)c2nonc2c1[N+](=O)[O-]`, the IC50 was > 80 µM (inactive).

As for `CN(C)c1cccc2c1c(NC(=O)c1ccc(F)cc1)nn2C`, the IC50 was > 80 µM (inactive).

As to `Cc1ccccc1-n1c(-c2ccc3ccccc3n2)n[nH]c1=S`, the IC50 is > 80 µM (inactive).

On to `Cc1cc(C)nc(/N=C(\N)Nc2ccccc2-c2ccccc2)n1`, for which the IC50 was > 80 µM (inactive).

On to `Cc1cc(C)c2c(=O)n(CC(=O)N3CCC(N4CCCCC4)CC3)sc2n1`, for which the IC50 is > 80 µM (inactive).

Consider `Cc1ccc(-n2sc3ccccc3c2=O)cc1`, for which the IC50 is 24.8 µM.

In the case of `CC1=C(O)C(=O)C=C2C1=CC=C1C2(C)CCC2(C)C3CC(C)(C(=O)O)CCC3(C)CCC12C` (stereo not given), the IC50 is > 80 µM (inactive).

`O=C1C=CC(=O)N1CCNc1ncc(C(F)(F)F)cc1Cl`: the 50% inhibitory concentration (IC50) was 65.4 µM.

As for `Cc1ccc(C(=O)/C=C/C(=O)c2ccc(C)cc2)cc1`, the half-inhibitory concentration (IC50) was 42 µM.

For `O=S(=O)(Nc1ccccc1F)c1cccc(NC(=S)NCCN2CCOCC2)c1`, the IC50 is 71.2 µM.

With `c1cc2c(cc1NC1CCCCCC1)OCO2`, the IC50 was > 80 µM (inactive).

With `COc1cc(-c2nnc3n2N=C(c2ccccc2)CS3)cc(OC)c1OC`, the IC50 is > 80 µM (inactive).

Take `Cc1ccc(-c2csc(NC(=O)c3ccccc3F)c2C(=O)O)cc1`: the IC50 is > 80 µM (inactive).

In the case of `CC(C)(C)c1ccc(C(=O)Nc2sc3c(c2C(=O)O)CCC3)cc1`, the IC50 is > 80 µM (inactive).

As for `O=C(CN1C(=O)C2C3C=CC(C3)C2C1=O)OCC(=O)c1ccc([N+](=O)[O-])cc1` (stereo not given), the IC50 was 56.7 µM.

As to `O=[N+]([O-])c1c(NCCCO)cc(Sc2nc3ccccc3s2)c2nonc12`, the IC50 is > 80 µM (inactive).

As for `O=c1[nH]c(NCCO)c(N=Cc2ccccc2)c(=O)[nH]1`, the IC50 is > 80 µM (inactive).

As for `COc1ccc(NC(C)C(=O)N/N=C/c2cc(Br)ccc2OC)cc1` (stereo not given), the IC50 is > 80 µM (inactive).

As for `C=CCOc1c(Cl)cc(CNc2ccc3[nH]c(=O)[nH]c3c2)cc1OC`, the IC50 was > 80 µM (inactive).

For `Cc1ccc(S(=O)c2ccc([N+](=O)[O-])c3nonc23)cc1` (stereo not given), the half-inhibitory concentration (IC50) was 60 µM.

`O=C1CCC[C@@H]2[C@@H](Cc3ccccc3)[C@H](N3CCN(c4ccccc4)CC3)C[C@@H]3CCN1[C@@H]32`: the IC50 was > 80 µM (inactive).

Take `O=S(=O)(Nc1cc(Sc2ncn[nH]2)c(O)c2ccccc12)c1ccccc1`: the IC50 is > 80 µM (inactive).

As for `O=C(CNC(=O)c1cccs1)OCC(=O)c1ccc([N+](=O)[O-])cc1`, the IC50 is 62.5 µM.

Turning to `COC1=C(Br)C(=O)c2nc(C)ccc2C1=O`, the IC50 is > 80 µM (inactive).

`CCOc1ccc(CNc2ccc(N3CCCC3)cc2)cc1`: the IC50 was > 80 µM (inactive).

Consider `CC(=O)Nc1ccc2c(=O)n(-c3ccccc3)sc2c1`, for which the IC50 is 13.8 µM.

On to `C[C@]12CC[C@@H]3c4ccc(O)c(O)c4CC[C@H]3[C@@H]1CC[C@@H]2O`, for which the IC50 was 22.3 µM.

As to `CCOC(=O)c1c2ccc(OCC(=O)NN)cc2n2ccccc12`, the IC50 is > 80 µM (inactive).

`CCCN1CCc2cccc3c2[C@H]1Cc1ccc(O)c(O)c1-3`: the IC50 was > 80 µM (inactive).

As to `CC(C)c1nnc(NC(=O)c2cc3ccccc3o2)s1`, the IC50 is > 80 µM (inactive).

As to `Cc1ccc(NC(=O)c2cc(C)n(-c3ccccc3)c2C)cc1`, the IC50 is > 80 µM (inactive).

Turning to `N#Cc1ccc2c(=O)n(-c3ccccc3)sc2c1`, the IC50 was > 80 µM (inactive).
